Measured values as given in paper PMC7555839 (Frontiers in Microbiology, 2020).
In brackets after ≈: the same amount, converted by molar mass. Like-named read-outs stand apart in the source and are kept apart here.

How the values were obtained:
[1] = test system: MRSA strain 43484; experiment: Mouse skin (wound) infection model, topical treatment; type: in vivo, Staphylococcus aureus; conditions: 2%, 50 μl topical twice daily for 3 days, female mice, skin biopsies day 4
Description: To study the effect of topical treatment with JBC 1847 against MRSA strain 43484, a mouse skin infection model was established. Initially, female mice (18–22 g) were orally treated with 45 μl nurofen (20 mg ibuprofen/ml) and anaesthetized with 0.15 ml s.c. of Zoletil mix. The fur was removed from an area of 6 cm^2 and a part of epidermis was subsequently scraped off to obtain a 1 cm^2 superficial skin lesion. The mice were inoculated with 10 μl of a saline solution containing approximately 10^7 CFU. The day after inoculation, topical treatment with 50 μl test compound was initiated and performed twice daily for a 3-day period. Fucidic acid was included as a positive control, and vehicle treatment was included as a negative control. Through the entire study, the behavior and clinical signs of the mice were carefully observed. Mice were killed the day after last treatment, and skin biopsies from the wounded area were collected. The skin samples were homogenized using a Dispomixer and serially diluted in saline/Triton X. To determine the bacterial concentration, 20 μl spots were transferred to MRSA Brilliance agar plates (Oxoid, Thermo Scientific, Roskilde, Denmark) and incubated 20–48 h at 35°C.
Data were statically analyzed and visualized using RStudio v3.6.3 ([R Core Team, 2020]) and Microsoft excel. In general, the values reflecting the bacterial concentration (CFU/ml) were transformed into a logarithmic scale. In the growth and viability assay, the mean numbers of the bacterial concentrations from the triplicates were plotted against time and standard deviations shown as error bars. To investigate differences in bacterial concentration between treatment groups in the in vivo assay, multiple group comparisons were performed using ANOVA and P < 0.05 considered significant. The data was visualized in a standard box plot.

[2] = test system: Staphylococcus aureus USA300 JE2; experiment: Broth microdilution (MIC/MBC); type: cell-based; conditions: USA300, broth microdilution, starter concentration of the tolerance assay, read-out: MIC value for USA300
[3] = test system: plasma proteins; conditions: cited from earlier work
[4] = test system: S. aureus USA300; experiment: Induced tolerance assay (23 days); conditions: for MIC: Staphylococcus aureus
[5] = test system: fusidic acid-resistant S. aureus isolates; design: method as in Castanheira et al., 2010; conditions: ref Castanheira et al., 2010; cited from earlier work
[6] = test system: Escherichia coli mutant [wp2 (pKM101)]; conditions: Positive control, + S9, 4 µg/well
[7] = test system: Salmonella typhimurium TA100; conditions: Positive control
[8] = test system: Salmonella typhimurium TA1535; conditions: Positive control
[9] = test system: Salmonella typhimurium TA98; conditions: Positive control
[10] = test system: Salmonella typhimurium TA1537; experiment: Ames test; conditions: Positive control
[11] = test system: MRSA strain; design: method as in Nehme et al., 2018; conditions: broth dilution method, ref Nehme et al., 2018; cited from earlier work
[12] = test system: E. coli strains; design: method as in Nehme et al., 2018; conditions: broth dilution method, ref Nehme et al., 2018; cited from earlier work

CC(=O)O[C@H]1C[C@@]2(C)[C@@H](C[C@@H](O)[C@H]3[C@@]4(C)CC[C@@H](O)[C@@H](C)[C@@H]4CC[C@@]32C)/C1=C(\CCC=C(C)C)C(=O)O [Fusidic acid, reference compound]
Reduction of bacterial counts compared with the vehicle [1]: 1.5 log10 CFU | MIC [2]: 0.03 µg/mL (≈ 0.0581 µM) | PPB (plasma protein binding) ([3]; ref Zeitlinger et al., 2011): approximately 98% | MIC ([4]; USA300, 24 h, read-out: MIC Day 1): 0.03 µg/mL (≈ 0.0581 µM) | MIC ([4]; USA300, 552 h, read-out: MIC Day 23): 7 µg/mL (≈ 13.5 µM) | Increase in MIC ([4]; tolerance assay, during the 23 days): 233 fold | MIC values (highly elevated) [5]: ≥ 512 µg/mL

Nc1ccc2cc3ccccc3cc2c1 [2-AA, 2-Aminoanthracene, reference compound]
Mean number of reverse mutated colonies [6]: 161.33 ± 18.90 | Mean number of reverse mutated colonies ([7]; TA100, + S9, 0.6 µg/well): 240.0 ± 49.15 | Mean number of reverse mutated colonies ([8]; TA1535, + S9, 0.6 µg/well): 34.00 ± 5.20 | Mean number of reverse mutated colonies ([9]; TA98, + S9, 0.6 µg/well): 332.0 ± 36.66 | Mean number of reverse mutated colonies ([10]; TA1537, + S9, 0.6 µg/well): 60.00 ± 5.00

COc1ccc2nc3cc(Cl)ccc3c(NCCCNCCCl)c2c1 [ICR 191, Acridine Mutagen (ICR 191), reference compound]
Mean number of reverse mutated colonies ([10]; TA1537, −S9, 0.2 µg/well): 54.67 ± 16.26

O=[N+]([O-])c1ccc2c(c1)Cc1ccccc1-2 [2-NF, 2-Nitrofluorene, reference compound]
Mean number of reverse mutated colonies ([9]; TA98, −S9, 2 µg/well): 268.00 ± 28.84

[N-]=[N+]=[N-].[Na+] [SA, Sodium azide, reference compound]
Mean number of reverse mutated colonies ([7]; TA100, −S9, 0.24 µg/well): 176.0 ± 46.13 | Mean number of reverse mutated colonies ([8]; TA1535, −S9, 0.24 µg/well): 111.0 ± 9.54

CO/N=C(\C(=O)N[C@@H]1C(=O)N2C(C(=O)O)=C(CSc3nc(=O)c(=O)[nH]n3C)CS[C@H]12)c1csc(N)n1 [ceftriaxone]
PPB (plasma protein binding) ([3]; ref Dutta et al., 2001): 90–95%

CN(C)CCCN1c2ccccc2Sc2ccccc21 [Promazine]
MIC [11]: 128 µg/mL (≈ 450 µM) | MIC [12]: 128 µg/mL (≈ 450 µM)
